The test system of data set [1] is MIA PaCa-2 cells. The data set is described as follows: In vitro anti-proliferative activity against MIA PaCa-2 cells (compound alone). In kind it is cell-based. The following applies: intracellular ATP content. As for the experimental part: MIA PaCa-2 cells were seeded on a 384-well plate at 3000 cells/well. After overnight adherence culture, DMSO or the compounds serially diluted 1:5 from 10 µM were added. The viability was assessed 72 h after dosing by measuring the intracellular ATP content. The inhibition percentage of viable cells by the compounds was calculated by comparing with the DMSO group, and the IC50 value was calculated.

Data set [2] concerns MIA PaCa-2 cells. The data set is described as follows: In vitro anti-proliferative activity in combination with gemcitabine against MIA PaCa-2 cells. In kind it is cell-based. As to conditions: read-out: Anti-proliferative activity against MIA PaCa-2 cells (20 nM gemcitabine) IC50; with 20 nM gemcitabine, 72 h, intracellular ATP content. The protocol: MIA PaCa-2 cells were seeded on a 384-well plate at 3000 cells/well, and 20 nM gemcitabine was added. After overnight adherence culture, DMSO or the compounds serially diluted 1:5 from 1000 nM were added. The viability was assessed 72 h after dosing by measuring the intracellular ATP content. The inhibition percentage of viable cells by the compounds was calculated by comparing with the DMSO group, and the IC50 value was calculated.

For the next data set, the target named is T1, Recombinant MYT1 protein (Homo sapiens, UniProt Q99640).
T1 sequence (Q99640 1-499): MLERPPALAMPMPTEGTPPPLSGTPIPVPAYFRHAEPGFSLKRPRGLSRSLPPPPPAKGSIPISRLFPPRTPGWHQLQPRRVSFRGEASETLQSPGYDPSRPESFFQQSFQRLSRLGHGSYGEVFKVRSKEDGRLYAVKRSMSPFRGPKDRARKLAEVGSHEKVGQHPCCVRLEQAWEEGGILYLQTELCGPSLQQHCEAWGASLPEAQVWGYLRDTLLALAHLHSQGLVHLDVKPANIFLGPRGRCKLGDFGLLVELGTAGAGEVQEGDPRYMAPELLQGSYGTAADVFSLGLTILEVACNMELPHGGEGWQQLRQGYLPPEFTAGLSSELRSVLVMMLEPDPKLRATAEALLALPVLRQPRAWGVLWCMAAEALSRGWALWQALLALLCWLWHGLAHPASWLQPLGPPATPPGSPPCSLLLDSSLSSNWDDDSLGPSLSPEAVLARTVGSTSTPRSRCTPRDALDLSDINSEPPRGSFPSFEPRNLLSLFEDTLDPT
The data set is described as follows: In vitro assay for inhibiting MYT1 kinase activity (ADP-GLO). It is filed as biochemical. The following applies: 10 μM ATP, read-out: Inhibitory activity against recombinant protein MYT1 IC50. As for the experimental part:
Recombinant MYT1 protein and the compounds were pre-incubated at room temperature for 15 min, and 10 μM ATP was then added to start the reaction. The mixture was incubated at room temperature for another 60 min, and the ADP-GLO reagent from Promega was then added. The resulting mixture was incubated in the dark for 40 min, a detection solution was then added, and the mixture was incubated for another 45-60 min. The chemiluminescence was determined using ENVISION. The inhibition rate and IC50 were calculated compared to the DMSO group.
In general terms: ADP-Glo turns the ADP formed in a reaction into a luminescent signal.

The subject of data set [3] is MDCK cells (MDCK wild type). As to the kind of experiment: In vitro permeability experiment, MDCK wild type. As to conditions: MDCK-Wild type, 5 μM, 90 min. As for the experimental part:
(§1) In vitro passive permeability or the ability to serve as a P-glycoprotein (P-gp) transport substrate was tested using MDCK cells (MDCK wild type) or MDCK cells stably transduced with MDR1 (MDCK-MDR1), respectively. The permeability experiment was performed in duplicate in a transwell system at a single concentration (5 μM). The cells were incubated for 90 min. Apical-to-basolateral (A to B, A-B) transport and basolateral-to-apical (B to A, B-A) transport of the corresponding compound were determined, and the permeation rate (apparent permeability) (Papp×10^−6 cm/sec) and efflux ratio (Papp (B-A)/Papp (A-B)) of the test compound were calculated.

Data set [4] concerns MDCK cells stably transduced with MDR1 (MDCK-MDR1). The data set is described as follows: In vitro permeability experiment, MDCK-MDR1. The following applies: 5 μM, 90 min. As for the experimental part:
as §1

Data set [5] can be described thus: In vitro solubility experiment. The following applies: thermodynamic from solid. In kind it is physicochemical. The protocol:
(§2) Preparation of a standard curve: 10.01 mg of sample was weighed out and placed in a volumetric flask, and the volume was brought to 10 mL with acetonitrile/water (v/v, 9/1) to prepare 1.001 mg/mL of standard solution; the standard solution was then serially diluted to 0.5005 mg/mL, 0.1001 mg/mL, 0.05005 mg/mL, 0.01001 mg/mL, and 0.001001 mg/mL to generate the standard curve, and a linear equation was fitted by taking the peak area of the sample as a vertical axis and the concentration as a horizontal axis. Solubility and stability test: 15 mg of sample was added to 3 mL of vehicle (FaSSIF, FeSSIF, SGF, or water) to prepare a corresponding suspension at a target concentration of 5 mg/mL. The prepared suspension was stirred on a shaker (800 rpm) at 37° C. for 0.5 h, and the suspension was then filtered. The filtrate was diluted with a diluent to a corresponding multiple so that the peak height could not exceed the standard curve, and the solubility and purity were detected using HPLC.

A short description of data set [6]: In vitro stability experiment (HPLC purity of filtrate). It is filed as physicochemical. The protocol:
as §2

Data set [7] is described as follows: In vivo pharmacokinetic experiment. On the set-up: species or system CD-1 female mice. The following applies: mice, oral administration 10 mg/kg. As for the experimental part: CD-1 female mice aged 7 to 10 weeks were intravenously administered and orally administered at a dose of 2 mg/kg and 10 mg/kg, respectively. The mice were fasted for at least 12 h before the administration and given food 4 h after the administration, and they were given ad libitum access to water during the experiment. On the day of the experiment, animals in the intravenous group were administered the corresponding compound by single injection via the tail vein at an administration volume of 10 mL/kg. Animals in the oral group were administered the corresponding compound by single intragastric injection at an administration volume of 10 mL/kg. The animals were weighed before administration, and the administration volume was calculated according to the body weight. The sample collection time was 0.083 h (injection group), 0.167 h, 0.5 h, 1 h, 2 h, 4 h, 8 h, and 24 h. About 200 μL of whole blood was collected through the submaxillary venous plexus at each time point and used to prepare plasma for concentration determination by high-performance liquid chromatography-tandem mass spectrometry (LC-MS/MS). All animals were euthanized with CO2 anesthesia after the PK samples were collected at the last time point. The plasma concentrations were processed using a non-compartmental model of Phoenix WinNonlin™ version 8.3 (Certara) pharmacokinetic software, and the pharmacokinetic parameters were calculated using a linear-log trapezoidal method.

Setting [8] is: FaSSIF, initial pH 6.52, 37° C.
Setting [9] is: FeSSIF, initial pH 4.98, 37° C.

Values after ≈ are worked out from the molar mass of the structure shown.

The IC50 is the concentration that inhibits the measured activity by half. The solubility is how much of the substance goes into solution per volume. The low end stands for little dissolved substance, the high end for much dissolved substance. As a reminder, the half-life is how long it takes for the measured level to halve. Higher therefore signals slow loss.

In turn, `Cc1cc2c(C(N)=O)c(N)n(-c3c(C)c(O)cc4c3CCC4)c2nc1C` (atropisomer, axis not shown) [Compound 117] returned a half-maximal inhibitory concentration (IC50) in the data set with MIA PaCa-2 cells [1] (72 h) greater than 10 µM.

On to `Cc1cc2c(C(N)=O)c(N)n(-c3c(C)c(O)cc(F)c3C)c2nc1C` [Compound 3], for which the IC50 in the data set on MIA PaCa-2 cells [2] is no less than 1.23 µM; in the data set with MIA PaCa-2 cells [1] (Homo sapiens, MIA PaCa-2, 72 h) it was greater than 10 µM.

For the compound `Cc1cc2c(C(N)=O)c(N)n(-c3c(C)ccc(O)c3C)c2nc1C#N` [Compound 12], in the data set with MIA PaCa-2 cells [1] (Homo sapiens, MIA PaCa-2, 72 h), the IC50 is greater than 10 µM.

As for `Cc1cc2c(C(N)=O)c(N)n(-c3c(C)c(O)cc4c3CCC4)c2nc1C` [Compound 116], the IC50 with MIA PaCa-2 cells [1] (Homo sapiens, MIA PaCa-2, 72 h) is greater than 10 µM.

Consider `Cc1cc2c(C(N)=O)c(N)n(-c3c(C)c(O)cc4c3CCCC4)c2nc1C` [Compound 127], for which the half-maximal inhibitory concentration (IC50) on Recombinant MYT1 protein was 0.2 to 0.5 µM.

For the compound `Cc1cc2c(C(N)=O)c(N)n(-c3c(C)c(O)cc4ccccc34)c2nc1C` [Compound 128], the IC50 on Recombinant MYT1 protein was in the range of 0.2 to 0.5 µM.

As to `Cc1cc2c(C(N)=O)c(N)n(-c3c(C)cc4c(c3C)NCC4)c2nc1C` [Compound 150], in the data set on MIA PaCa-2 cells [1] (Homo sapiens, MIA PaCa-2, 72 h), the IC50 was greater than 10 µM.

In the data set on MIA PaCa-2 cells [1] (72 h), `Cc1cc2c(C(N)=O)c(N)n(-c3c(C)cc4c(c3C)NCC4)c2nc1C` [Compound 151] displayed an IC50 greater than 10 µM.

In the data set on MIA PaCa-2 cells [1] (Homo sapiens, MIA PaCa-2, 72 h), `Cc1cc2c(C(N)=O)c(N)n(-c3c(C)cc4cc[nH]c4c3C)c2nc1C` [Compound 153] returned an IC50 greater than 10 µM.

Turning to `COCCc1ccc(OCC(O)CNC(C)C)cc1` (stereo not drawn) [Metoprolol, reference compound], the “Papp Mean” value in data set [3] (A-B) is given as 24.34 10^−6 cm · s^−1; in data set [3] (B-A) it was 21.29 10^−6 cm · s^−1; in data set [4] (MDCK-MDR1, A-B) it was 36.96 10^−6 cm · s^−1; in data set [4] (MDCK-MDR1, B-A), 20.14 10^−6 cm · s^−1. In addition, the “Papp Sample - 01” value is recorded as 26.48 10^−6 cm · s^−1 in data set [3] (A-B); 18.61 10^−6 cm · s^−1 in data set [3] (B-A); 37.59 10^−6 cm · s^−1 in data set [4] (MDCK-MDR1, A-B); 20.11 10^−6 cm · s^−1 in data set [4] (MDCK-MDR1, B-A). Besides, the “Papp Sample - 02” value in data set [3] (A-B) was 22.20 10^−6 cm · s^−1; in data set [3] (B-A) it was 23.97 10^−6 cm · s^−1; in data set [4] (MDCK-MDR1, A-B) it was 36.32 10^−6 cm · s^−1; in data set [4] (MDCK-MDR1, B-A), 20.17 10^−6 cm · s^−1.

Regarding `Cc1cc2c(C(N)=O)c(N)n(-c3c(C)ccc(O)c3C)c2nc1C` [RP-6306, reference compound], the solubility at 0.5 h in data set [5] (simulated gastric fluid, SGF, initial pH 1.2, 37° C.) is 3860 µg/mL (≈ 11900 µM); in data set [5] (setting [8]), 49 µg/mL (≈ 151 µM); in data set [5] (setting [9]) it was 182 µg/mL (≈ 561 µM); in data set [5] (Water, initial pH 7.7, 37° C.) it was 13 µg/mL (≈ 40.1 µM). Also, the “HPLC purity 0.5 h” value in data set [6] (setting [8]) is 58.88 %, 220 nm; in data set [6] (setting [9]), 74.51 %, 220 nm; in data set [6] (SGF, initial pH 1.2, 37° C.), 98.18 %, 220 nm; in data set [6] (Water, initial pH 7.7, 37° C.), 40.92 %, 220 nm. This compound registered an IC50 with MIA PaCa-2 cells [1] (Homo sapiens, MIA PaCa-2, 72 h) of 9.22 µM. This compound gave a half-life in data set [7] (female, CD-1, mouse, plasma) of 1.58 h. Besides, the F % in data set [7] is given as 54.7%.

Values taken from patent US12122774B2, “Compounds as MYT1 inhibitors” (WIGEN BIOMEDICINE TECHNOLOGY (SHANGHAI) CO., LTD., priority 2022, dated 2024).
